Laboratory results: patent publication US11084824B2, “Pyrazolopyrimidine derivatives, preparation method thereof, and pharmaceutical composition for use in preventing or treating cancer, autoimmune disease and brain disease containing the same as an active ingredient” (Korea Research Institute of Chemical Technology, priority 2017, dated 2021)

How the values were obtained:
[1] = test system: human peripheral blood mononuclear cells (human PBMC); assay: TNFa inhibition in human PBMC monocytes (ELISA); format: cell-based; settings: TNFa concentration in culture medium by ELISA, HSA/anti-HSA antibody coated plate, overnight culture, read-out: hPBMC IC50
Method: 20 ug/ml of human serum albumin (HAS) solution was prepared and distributed in a 96-well plate (200 μl/well). Reaction was induced at 4° C. for overnight and then 10% FBS solution was treated thereto (200 μl/well), followed by elimination. Lastly, 10 ug/ml of anti-HSA antibody was treated thereto (200 μl/well) for 1 hour, followed by elimination. An appropriate number of monocytes of human peripheral blood mononuclear cells (human PBMC) were distributed in the prepared 96-well plate. The target compounds were treated thereto at different concentration via serial dilution method, followed by culture for overnight. IC50 values of the compounds were determined by confirming the TNFa inhibition activity of the compounds between the maximum concentration (positive control) and the minimum concentration (negative control) of TNFa, and the results are shown in Table 8.

TMD8 cells = assay: TMD8 cell growth inhibition (WST-1, 72 hours); format: cell-based; settings: Homo sapiens, TMD8 ABC type DLBCL cell line, WST-1, absorbance 450 nm
Method: TDM-8 cells, the ABC (activated B-cell) type DLBCL (diffuse large B cell lymphoma) cell line sensitive to BTK signaling, were seeded in a 96-well plate at 30% confluency. Then, the compounds of the invention were treated thereto at different concentrations. 72 hours later, WST-1 reagent was added thereto. One hour later, absorbance was measured at 450 nm by using a spectramax spectrophotometer.

[2] = target: Bruton's tyrosine kinase (BTK) (Homo sapiens (Human), UniProt Q06187); assay: BTK enzyme inhibition assay (Cisbio HTRF kit); format: biochemical; settings: 30 minutes reaction, fluorescence 665 nm/620 nm
Bruton's tyrosine kinase (BTK), sequence (Q06187 whole entry): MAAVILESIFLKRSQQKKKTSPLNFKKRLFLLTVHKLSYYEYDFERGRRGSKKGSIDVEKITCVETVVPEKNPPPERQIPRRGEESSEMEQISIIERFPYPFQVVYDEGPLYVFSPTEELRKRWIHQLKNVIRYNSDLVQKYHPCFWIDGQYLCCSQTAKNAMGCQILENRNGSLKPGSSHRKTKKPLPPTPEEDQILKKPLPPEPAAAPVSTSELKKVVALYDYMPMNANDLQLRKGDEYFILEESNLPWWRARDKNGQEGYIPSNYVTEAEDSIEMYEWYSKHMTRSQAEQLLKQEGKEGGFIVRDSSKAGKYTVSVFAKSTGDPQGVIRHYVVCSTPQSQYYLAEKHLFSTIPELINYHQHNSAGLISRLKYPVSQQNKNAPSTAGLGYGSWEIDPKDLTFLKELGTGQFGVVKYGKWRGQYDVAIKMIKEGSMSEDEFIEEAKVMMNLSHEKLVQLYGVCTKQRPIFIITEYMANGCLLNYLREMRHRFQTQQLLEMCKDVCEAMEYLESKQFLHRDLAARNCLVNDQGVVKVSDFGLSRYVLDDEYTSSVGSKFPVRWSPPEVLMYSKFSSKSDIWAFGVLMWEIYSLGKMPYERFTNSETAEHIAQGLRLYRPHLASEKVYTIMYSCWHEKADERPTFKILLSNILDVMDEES
Method: BTK enzyme evaluation with each compound of examples of the invention was performed by using BTK enzyme inhibition diagnosis kit (Cisbio, Codolet, France). […] Then, EDTA (ethylenediaminetetraacetic acid) was added thereto in order to terminate the reaction. At this time, the EDTA solution contained curopium-containing antibody (antiphosphoresidue antibody) and straptavidin-XL665 (SA-XL665, Cisbio). After incubation for 1 hour, fluorescence was measured. The emission values of 665 nm and 620 nm excited at 337 nm were measured with Envision reader. IC50 values were determined using GraphPad prism (version 5). Herein, the curve indicates a nonlinear regression model, which was determined by logarithmic functions and reaction values.

IC50 [2] | SMILES | IC50 [1] | IC50 (TMD8 cells)
0.8 nM | Cc1cccc(C)c1Nc1nn(C)c2nc(Nc3ccc4c(c3)CCNC4)ncc12 [Example 7, N^3-(2,6-dimethylphenyl)-1-methyl-N^6-(1,2,3,4-tetrahydroisoquinoline-6-yl)-1H-pyrazolo[3,4-d]pyrimidine-3,6-diamine] | 20 nM | 46 nM
0.6 nM | CC(=O)N1CCc2ccc(Nc3ncc4c(Nc5c(C)cccc5C)nn(C)c4n3)cc2C1 [Example 1, 1-(7-(3-(2,6-dimethylphenylamino)-1-methyl-1H-pyrazolo[3,4-d]pyrimidine-6-ylamino)-3,4-dihydroisoquinoline-2(1H)-yl)ethaneone] | 35 nM | 41.1 nM
0.8 nM | Cc1cccc(C)c1Nc1nn(C)c2nc(Nc3ccc4c(c3)CN(C(=O)CN(C)C)CC4)ncc12 [Example 31, 2-(dimethylamino)-1-(7-(3-(2,6-dimethylphenylamino)-1-methyl-1H-pyrazolo[3,4-d]pyrimidine-6-ylamino)-3,4-dihydroisoquinolin-2(1H)-yl)ethanone] |  | 64.2 nM
2.13 nM | Cc1cccc(C)c1Nc1nn(C)c2nc(Nc3ccc4c(c3)CN(C)CC4(C)C)ncc12 [Example 63, N3-(2,6-dimethylphenyl)-1-methyl-N 6-(2,4,4-trimethyl-1,2,3,4-tetrahydroisoquinoline-7-yl)-1H-pyrazolo[3,4-d]pyrimidine-3,6-diamine] |  | 20.9 nM
3 nM | COc1cc(C)c(Nc2nn(C)c3nc(Nc4ccc5c(c4)CNCC5)ncc23)c(C)c1 [Example 35, N^3-(4-methoxy-2,6-dimethylphenyl)-1-methyl-N^6-(1,2,3,4-tetrahydroisoquinoline-7-yl)-1H-pyrazolo[3,4-d]pyrimidine-3,6-diamine] |  | 99.3 nM
0.4 nM | Cc1cccc(C)c1Nc1nn(C)c2nc(Nc3ccc4c(c3)CN(C(=O)CO)CC4)ncc12 [Example 22, 1-(7-(3-(2,6-dimethylphenylamino)-1-methyl-1H-pyrazolo[3,4-d]pyrimidine-6-ylamino)-3,4-dihydroisoquinoline-2(1H)-yl)-2-hydroxyethanone] |  | 46.4 nM
0.523 nM | Cc1cccc(C)c1Nc1nn(C)c2nc(Nc3ccc4c(c3)CNC(C)(C)C4)ncc12 [Example 53, N^6-(3,3-dimethyl-1,2,3,4-tetrahydroisoquinoline-7-yl)-N^3-(2,6-dimethylphenyl)-1-methyl-1H-pyrazolo[3,4-d]pyrimidine-3,6-diamine] |  | 31.9 nM
8 nM | Cc1ccc(NC(=O)c2cccc(C(F)(F)F)c2)c(C)c1Nc1nn(C)c2nc(Nc3ccc4c(c3)CNCC4)ncc12 [Example 29, N-(2,4-dimethyl-3-(1-methyl-6-(1,2,3,4-tetrahydroisoquinoline-7-ylamino)-1H-pyrazolo[3,4-d]pyrimidine-3-ylamino)phenyl)-3-(trifluoromethyl)benzamide] |  | 117 nM
0.2 nM | Cc1cccc(C)c1Nc1nn(C)c2nc(Nc3ccc4c(c3)CN(C(C)C)CC4)ncc12 [Example 21, N-(2,6-dimethylphenyl)-N^6 (2-isopropyl-1,2,3,4-tetrahydroisoquinoline-7-yl)-1-methyl-1H-pyrazolo[3,4-d]pyrimidine-3,6-diamine] |  | 139 nM
1.84 nM | Cc1cccc(C)c1Nc1nn(C)c2nc(Nc3ccc4c(c3)C(C)(C)N(C)CC4)ncc12 [Example 59, N3-(2,6-dimethylphenyl)-1-methyl-N 6-(1,1,2-trimethyl-1,2,3,4-tetrahydroisoquinoline-7-yl)-1H-pyrazolo[3,4-d]pyrimidine-3,6-diamine] |  | 9.27 nM

The remaining lines, values behind:

SMILES | IC50 [2] | IC50 [1] | IC50 (TMD8 cells)
CC(=O)N1CCc2ccc(Nc3ncc4c(Nc5c(Cl)cccc5Cl)nn(C)c4n3)cc2C1 [Example 13, 1-(7-(3-(2,6-dichlorophenylamino)-1-methyl-1H-pyrazolo[3,4-d]pyrimidine-6-ylamino)-3,4-dihydroisoquinoline-2(1H)-yl)ethaneone] | 3 nM | 5.5 nM | 118 nM
Cn1nc(Nc2ccccc2)c2cnc(Nc3ccc4c(c3)CNCC4)nc21 [Example 10, 1-methyl-N^3-phenyl-N^6-(1,2,3,4-tetrahydroisoquinoline-7-yl)-1H-pyrazolo[3,4-d]pyrimidine-3,6-diamine] |  | 202 nM | 
C=CC(=O)N1CCc2ccc(Nc3ncc4c(Nc5c(C)cccc5C)nn(C)c4n3)cc2C1 [Example 14, 1-(7-(3-(2,6-dimethylphenylamino)-1-methyl-1H-pyrazolo[3,4-d]pyrimidine-6-ylamino)-3,4-dihydroisoquinoline-2(1H)-yl)prop-2-en-1-one] | 2 nM | 31 nM | 32 nM
Cc1cccc(C)c1Nc1nn(C)c2nc(Nc3ccc4c(c3)CNCC4)ncc12 [Example 2, N^3-(2,6-dimethylphenyl)-1-methyl-N^6-(1,2,3,4-tetrahydroisoquinoline-7-yl)-1H-pyrazolo[3,4-d]pyrimidine-3,6-diamine] |  | 7.7 nM | 30.1 nM
Cc1cccc(C)c1Nc1nn(C2CCCCC2)c2nc(Nc3ccc4c(c3)CNCC4)ncc12 [Example 26, 1-cyclohexyl-N^3-(2,6-dimethylphenyl)-N^6 (1,2,3,4-tetrahydroisoquinoline-7-yl)-1H-pyrazolo[3,4-d]pyrimidine-3,6-diamine] | 2 nM |  | 64.9 nM
Cc1cccc(C)c1Nc1nn(C)c2nc(Nc3ccc4c(c3)C(C(C)C)NCC4)ncc12 (stereo not drawn) [Example 49, N^3-(2,6-dimethylphenyl)-N^6-(1-isopropyl-1,2,3,4-tetrahydroisoquinoline-7-yl)-1-methyl-1H-pyrazolo[3,4-d]pyrimidine-3,6-diamine] | 1.61 nM |  | 19.6 nM
Cn1nc(Nc2c(Cl)cccc2Cl)c2cnc(Nc3ccc4c(c3)CCNC4)nc21 [Example 15, N^3-(2,6-dichlorophenyl)-1-methyl-N^6-(1,2,3,4-tetrahydroisoquinoline-6-yl)-1H-pyrazolo[3,4-d]pyrimidine-3,6-diamine] |  | 1.3 nM | 41 nM
Cc1ccc(NC(=O)c2cccc(C(F)(F)F)c2)cc1Nc1nn(C)c2nc(Nc3ccc4c(c3)C(C)NCC4)ncc12 (stereo not drawn) [Example 47, N-(4-methyl-3-(1-methyl-6-(1-methyl-1,2,3,4-tetrahydroisoquinoline-7-ylamino)-1H-pyrazolo[3,4-d]pyrimidine-3-ylamino)phenyl)-3-(trifluoromethyl)benzamide] | 5.42 nM |  | 13.8 nM
CCc1cccc(CC)c1Nc1nn(C)c2nc(Nc3ccc4c(c3)CNCC4)ncc12 [Example 36, N^3-(2,6-diethylphenyl)-1-methyl-N^6-(1,2,3,4-tetrahydroisoquinoline-7-yl)-1H-pyrazolo[3,4-d]pyrimidine-3,6-diamine] | 44 nM |  | 968 nM
Cc1cccc(C)c1Nc1nn(C)c2nc(Nc3ccc4c(c3)CN(C)CC4)ncc12 [Example 17, N^3-(2,6-dimethylphenyl)-1-methyl-N^6-(2-methyl-1,2,3,4-tetrahydroisoquinoline-7-yl)-1H-pyrazolo[3,4-d]pyrimidine-3,6-diamine] | 1.2 nM |  | 36 nM
Cc1cccc(Cl)c1Nc1nn(C)c2nc(Nc3ccc4c(c3)CNCC4)ncc12 [Example 48, N^3-(2-chloro-6-methylphenyl)-1-methyl-N^6 (1,2,3,4-tetrahydroisoquinoline-7-yl)-1H-pyrazolo[3,4-d]pyrimidine-3,6-diamine] | 1.28 nM |  | 50.2 nM
Cc1cccc(C)c1Nc1nn(C2CCC(O)CC2)c2nc(Nc3ccc4c(c3)CNCC4)ncc12 (stereo not drawn) [Example 54, 4-(3-((2,6-dimethylphenyl)amino)-6-((1,2,3,4-tetrahydroisoquinoline-7-yl)amino)-1H-pyrazolo[3,4-d]pyrimidine-1-yl)cyclohexane-1-ol] | 1.14 nM |  | 60.9 nM
Cc1cccc(C)c1Nc1nn(C)c2nc(Nc3ccc4c(c3)CN(C(=O)C3CC3)CC4)ncc12 [Example 23, cyclopropyl(7-(3-(2,6-dimethylphenylamino)-1-methyl-1H-pyrazolo[3,4-d]pyrimidine-6-ylamino)-3,4-dihydroisoquinoline-2(1H)-yl)methanone] | 0.3 nM |  | 87.9 nM
Cc1ccc(NC(=O)c2cccc(C(F)(F)F)c2)cc1Nc1nn(C)c2nc(Nc3ccc4c(c3)CNCC4)ncc12 [Example 28, N-(4-methyl-3-((1-methyl-6-((1,2,3,4-tetrahydroisoquinoline-7-yl)amino)-1H-pyrazolo[3,4-d]pyrimidine-3-yl)amino)phenyl)-3-(trifluoromethyl)benzamide] | 3 nM |  | 17.9 nM
